Consider 13 molecules from PubChem BioAssay (NCI).

Structures are written as SMILES.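 Cells were grown in 96-well plates and exposed to each compound for 48 hours at five concentrations; endpoints were interpolated linearly between bracketing concentrations, or set to the highest concentration if not reached. TGI is the concentration that stops growth completely.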

Test systems include SK-MEL-28 melanoma; UACC-62 melanoma; HOP-62 NSCLC; TK-10 renal; EKVX NSCLC; LOX IMVI melanoma; SK-OV-3 ovarian; NCI-H460 lung; NCI-H23 lung; RXF 393 renal; MDA-MB-231 breast; SN12C renal.
What all share (assay): inhibition of tumour cell growth, NCI panel, 48 h

Consider `C[C@@]12[C@H]3CC[C@@H]1[C@H](O)C(=O)N2CC3`, for which the TGI in the experiment with SK-MEL-28 melanoma, with UACC-62 melanoma, in the experiment on HOP-62 NSCLC, in the experiment with TK-10 renal, in the experiment with EKVX NSCLC and in the experiment with LOX IMVI melanoma was above 100 µM throughout. Further, the TGI with SK-OV-3 ovarian, in the experiment on NCI-H460 lung, in the experiment with NCI-H23 lung, with RXF 393 renal and in the experiment with MDA-MB-231 breast was above 100 µM each time.
Turning to `N.N.N.O=[N+]([O-])[O-].O=[N+]([O-])[O-].O=[N+]([O-])[O-].O=[N+]([O-])[O-].[Co+3]`, the TGI in the experiment on SK-MEL-28 melanoma, in the experiment on UACC-62 melanoma, in the experiment with HOP-62 NSCLC, in the experiment on TK-10 renal, in the experiment on EKVX NSCLC and in the experiment on LOX IMVI melanoma was above 100 µM each time. The TGI with SK-OV-3 ovarian, in the experiment with NCI-H460 lung, in the experiment with NCI-H23 lung and in the experiment with SN12C renal was above 100 µM throughout.
For `CC(C)=CCOC(=O)C(C)=[N+]=[N-]`, the TGI in the experiment on SK-MEL-28 melanoma, in the experiment with UACC-62 melanoma, with HOP-62 NSCLC, in the experiment on TK-10 renal, in the experiment on EKVX NSCLC and in the experiment with LOX IMVI melanoma was above 100 µM throughout. The TGI with NCI-H460 lung, with NCI-H23 lung, with SN12C renal and with MDA-MB-231 breast was above 100 µM each time.
Turning to `CC[C@]1(Cc2ccc(OC)c(OC)c2)CN(S(=O)(=O)c2ccc(C)cc2)C[C@@H]1OC(C)=O`, the TGI with SK-MEL-28 melanoma, in the experiment with UACC-62 melanoma, in the experiment on HOP-62 NSCLC, in the experiment on TK-10 renal, in the experiment with EKVX NSCLC and in the experiment on LOX IMVI melanoma was above 100 µM in each case. Also, the TGI with SK-OV-3 ovarian, with NCI-H460 lung, in the experiment on NCI-H23 lung, in the experiment with RXF 393 renal and in the experiment with MDA-MB-231 breast was above 100 µM each time.
Regarding `NC(=O)N/N=C(\Cc1nc2ccc(Cl)cc2[nH]c1=O)C(=O)Nc1ccc(Cl)cc1Cl`, the TGI with SK-MEL-28 melanoma, in the experiment on UACC-62 melanoma, with TK-10 renal, in the experiment with EKVX NSCLC, in the experiment on LOX IMVI melanoma and with SK-OV-3 ovarian was above 100 µM throughout. For the same molecule, the TGI in the experiment on NCI-H460 lung, with NCI-H23 lung, in the experiment with SN12C renal and in the experiment with MDA-MB-231 breast was above 100 µM each time.
Regarding `COc1cc2c(cc1OC)C1=Cc3cc(OC)c(OC)cc3C(C)N1C=C2` (centres undefined), the TGI with SK-MEL-28 melanoma, in the experiment with UACC-62 melanoma, in the experiment on HOP-62 NSCLC, in the experiment on TK-10 renal, with EKVX NSCLC and with SK-OV-3 ovarian was above 100 µM throughout. Further, the TGI with NCI-H460 lung, with NCI-H23 lung, in the experiment with RXF 393 renal and in the experiment with SN12C renal was above 100 µM throughout.
For the molecule `Cc1nnc(Nc2ccccc2)o1`, the TGI in the experiment with SK-MEL-28 melanoma, in the experiment on UACC-62 melanoma, in the experiment with TK-10 renal, with EKVX NSCLC, in the experiment on LOX IMVI melanoma and in the experiment with SK-OV-3 ovarian was above 100 µM throughout. In addition, the TGI with NCI-H23 lung, in the experiment on RXF 393 renal and in the experiment with SN12C renal was above 100 µM each time.
Consider `OCC1CCCCCCCCCCC12SCCCS2` (centres undefined), for which the TGI in the experiment on SK-MEL-28 melanoma, in the experiment on UACC-62 melanoma, in the experiment on HOP-62 NSCLC, in the experiment with TK-10 renal, with EKVX NSCLC and in the experiment on LOX IMVI melanoma was above 100 µM in each case. Moreover, the TGI in the experiment with SK-OV-3 ovarian, in the experiment with NCI-H460 lung and in the experiment with NCI-H23 lung was above 100 µM throughout.
As for `O=C(Nc1ccc(Br)cc1)c1c(-c2ccccc2)c2ccc(O)cc2oc1=O`, the TGI in the experiment on SK-MEL-28 melanoma, in the experiment with HOP-62 NSCLC, with TK-10 renal, with EKVX NSCLC, in the experiment with LOX IMVI melanoma and in the experiment on SK-OV-3 ovarian was above 10 µM throughout. Further, the TGI with NCI-H460 lung, in the experiment on NCI-H23 lung, with RXF 393 renal, in the experiment with SN12C renal and in the experiment on MDA-MB-231 breast was above 10 µM throughout.
As to `c1ccc(C2C3=C(Nc4ncnn42)c2ccccc2C3)cc1` (centres undefined), the TGI with UACC-62 melanoma is above 100 µM; in the experiment on HOP-62 NSCLC it was above 100 µM; in the experiment with TK-10 renal, above 100 µM; with EKVX NSCLC it was above 100 µM; in the experiment with LOX IMVI melanoma it was 73.2 µM; in the experiment with SK-OV-3 ovarian, above 100 µM. The TGI in the experiment on NCI-H460 lung was above 100 µM; in the experiment with NCI-H23 lung, 65.1 µM; with RXF 393 renal, above 100 µM; with SN12C renal, above 100 µM.
As for `Cc1ccc([C@@H]2[C@@H](C(=O)c3ccccn3)[C@H](c3ccc(C)cc3)C[C@](O)(c3ccccn3)[C@H]2C(=O)c2ccccn2)cc1`, the TGI was above 100 µM with SK-MEL-28 melanoma; 35.2 µM in the experiment with UACC-62 melanoma; above 100 µM with HOP-62 NSCLC; above 100 µM with TK-10 renal; above 100 µM with LOX IMVI melanoma; above 39.2 µM in the experiment with SK-OV-3 ovarian. In addition, the TGI is 10.7 µM with NCI-H460 lung; above 100 µM with NCI-H23 lung; above 100 µM in the experiment on RXF 393 renal; above 100 µM with SN12C renal; above 100 µM with MDA-MB-231 breast.
In the case of `COC(=O)C(CCC#N)(CCC#N)C(=O)OC`, the TGI with SK-MEL-28 melanoma, in the experiment on UACC-62 melanoma, with HOP-62 NSCLC, in the experiment with EKVX NSCLC, in the experiment with LOX IMVI melanoma and in the experiment with SK-OV-3 ovarian was above 100 µM throughout. The TGI with NCI-H460 lung, in the experiment with NCI-H23 lung and in the experiment with SN12C renal was above 100 µM each time.
As for `CC(O[Si](c1ccccc1)(c1ccccc1)C(C)(C)C)[C@H](NC(=O)OC(C)(C)C)C(=O)O[Si](c1ccccc1)(c1ccccc1)C(C)(C)C` (some centres undefined), the TGI turned out to be 28.5 µM with SK-MEL-28 melanoma; 34.2 µM in the experiment with HOP-62 NSCLC; 31.1 µM in the experiment with TK-10 renal; 26.4 µM in the experiment with EKVX NSCLC; 30 µM with SK-OV-3 ovarian; 25.5 µM in the experiment with NCI-H460 lung. In addition, the TGI in the experiment on NCI-H23 lung came out at 26.1 µM; in the experiment with RXF 393 renal, 26.9 µM.
